System: pERK
Assay: Skin punch biopsy pERK immunohistochemistry
Assay type: in vivo, human
Details: cycle 1 day 15
Protocol: Skin punch biopsies (with hair follicles, if feasible) were obtained from patients in the dose-escalation phase and colorectal cancer expansion phase cohorts pre-dose at baseline and post dose within 7 days of cycle 1 day 15 for measurement of Ki67 and pERK expression. Ki67 and pERK expression were determined by immunohistochemistry using a Ki67 rabbit monoclonal antibody (clone 30-9; Ventana Medical Systems, Inc., Tucson, AZ, USA) and a pERK rabbit monoclonal antibody (Thr202/Tyr204, clone 20G11; Cell Signaling Technology, Inc., Danvers, MA), respectively, visualised with DAB and counterstained with haematoxylin. Ki67 was expressed as percentage of tumour cells with positive stain; pERK was expressed as an H-score.

## Cn1cnc2c(F)c(Nc3ccc(Br)cc3F)c(C(=O)NOCCO)cc21 [binimetinib]
30 mg BID (n=4)
  Skin expression of pERK, median (range) percent of baseline: 88 (50–100) percent of baseline
45 mg BID (n=22)
  Skin expression of pERK, median (range) percent of baseline: 66 (38–189) percent of baseline
60 mg BID (n=7)
  Skin expression of pERK, median (range) percent of baseline: 59 (29–72) percent of baseline
Total (N=33)
  Skin expression of pERK, median (range) percent of baseline: 64 (29–189) percent of baseline
